This note sets out measurements from patent publication US20140322761A1, “METHOD OF PREPARING SAMPLE FOR NUCLEIC ACID AMPLIFICATION REACTION, NUCLEIC ACID AMPLIFICATION METHOD, AND REAGENT AND MICROCHIP FOR SOLID PHASE NUCLEIC ACID AMPLIFICATION REACTION” (Sony Corporation, priority 2013, published 2014).

Test [1] relates to nucleic acid amplification reaction (genome of Bifidobacterium bifidum as template). The test can be described thus: LAMP reaction with SDS and HPβCD, bacterial genome as template (Example 6). It counts as biochemical. The protocol: In Example 6, nucleic acid amplification reaction was performed using the LAMP method using a genome of Bifidobacterium bifidum as a template nucleic acid. In addition, a sample for nucleic acid amplification reaction, a primer, and a quenching probe used for the nucleic acid amplification reaction were the same as those in Example 5. HPβCD was prepared such that a final concentration of HPβCD in a nucleic acid amplification reaction solution becomes 2.5%. Furthermore, SDS was added thereto such that the SDS concentrations become 0%, 0.05%, 0.1%, 0.2%, 0.3%, 0.4%, 0.5%, and 1.0% to be set as Test Examples 1 to 8 respectively. In addition, HPβCD was prepared such that a final concentration of HPβCD in a nucleic acid amplification reaction solution becomes 5.0%. Furthermore, SDS was added thereto such that the SDS concentrations become 0%, 0.05%, 0.1%, 0.2%, 0.3%, 0.4%, 0.5%, and 1.0% to be set as Test Examples 9 to 16 respectively. In addition, nucleic acid amplification reaction solutions prepared such that the HPβCD concentration becomes 0% and the SDS concentrations become 0%, 0.01%, and 0.1% to be set as Comparative Examples 1 to 3.

The target in another test is T1, RNase A (Bos taurus, UniProt P61823).
T1 sequence (P61823 27-150): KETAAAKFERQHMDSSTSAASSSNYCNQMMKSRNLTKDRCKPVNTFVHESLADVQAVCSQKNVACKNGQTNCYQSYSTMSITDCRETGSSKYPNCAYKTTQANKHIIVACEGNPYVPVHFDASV
In words: RNase A activity, RNase Alert QC test Kit (Example 3). The format is biochemical. The note with it: RNase A 0.003 U/mL, 37° C., 60 minutes, compared to Comparative Example 2 without SDS. The protocol: RNase Alert QC test Kit (Ambion) was used for measuring the activity of the RNase A. The RNase A was added to the solution containing RNaseAlert substrate with a final concentration of 0.003 U/mL. The SDS was added to the RNase A solution with a final concentration of 0.1% or 1.0% each to be set as Test Example 1 and Test Example 2. […] Test Examples 1 and 2 and Comparative Examples 1 and 2 were kept warm for 60 minutes at a temperature of 37° C. A fluorescent material (FAM) is bonded with a quencher in the RNaseAlert substrate. The fluorescent material emits when the fluorescent material is separated from the quencher using the RNase A. Excitation light and luminescence of the fluorescence was measured to be 490 nm and 520 nm respectively, using Chromo4 (Bio-rad).

Another test has as its system Bifidobacterium bifidum. In words: Nucleic acid extraction from bacteria by heat treatment with SDS, followed by LAMP (Example 5). The note with it: HPβCD 5% (w/v), LAMP 63° C. Here is the method: In Example 5, Bifidobacterium bifidum from which it is comparatively difficult to extract the nucleic acid was used as bacteria. The Bifidobacterium bifidum (NBRC number: 100015) was obtained from Biological Resource Center (NBRC) of National In statute of Technology and Evaluation (NITE). In addition, the nucleic acid amplification reaction of a genome of Bifidobacterium bifidum was performed using the LAMP method and an LAMP reaction reagent (Eiken Chemical Co., Ltd, Loopamp® DNA Amplification reagent Kit) was used as a sample for the nucleic acid amplification reaction.
A quenching probe shown in Table 3 was used for detecting an amplification nucleic acid chain. In Example 5, excitation light and luminescence of light derived from a fluorescent material FAM bonded with the quenching probe was measured to be 490 nm and 520 nm respectively, using Chromo4 (Bio-rad).
A cell suspension in which the Bifidobacterium bifidum is prepared to be 100 copies/ml. In Example 5, as Test Examples 3 to 5, SDS was added to the cell suspension at the time of heat treatment such that concentrations of SDS become 0.01%, 0.1%, and 1%, respectively (refer to Table 4). In addition, as Test Examples 1 and 2 and Comparative Example 1, cell suspensions to which SDS was not added was prepared (refer to Table 4). The heat treatment was performed for 3 minutes at a temperature of 90° C. for Test Examples 1 and 3 to 5 before starting the nucleic acid amplification reaction. In addition, sonication was performed for Test Example 2 before starting the nucleic acid amplification reaction. After the heating process or the sonication, a LAMP reaction reagent and a primer and quenching probe of Table 3 were added to Test Examples 1 to 5. Furthermore, hydroxyprophyl-β-cyclodextrin (Tokyo Chemical Industry Co., Ltd.) was added to Test Examples 1 to 5 such that a final concentration of the hydroxyprophyl-β-cyclodextrin becomes 5% (w/v). A sample for nucleic acid amplification reaction, a primer, a quenching probe, and HPβCD were added to Comparative Example 1 as well. […]

In test [2] the test system is RNase A contained in plasma. In words: Activity of RNase A contained in diluted bovine plasma, RNase Alert QC test Kit (Example 4). The format is biochemical. The note with it: 37° C., 60 minutes. Here is the method:
In Example 4, bovine plasma was used as an organism derived sample. The bovine plasma was used after being diluted 10 times or 20 times in advance. Similarly to Example 3, RNase Alert QC test Kit (Ambion) was used for measuring the activity of the RNase A. RNaseAlert substrate and SDS were added to the 10 times diluted bovine plasma such that final concentrations of the SDS become 0.05%, 0.1%, 0.2%, 0.3%, 0.4%, and 0.5% respectively to be set as Test Examples 1 to 6. In addition, RNaseAlert substrate and SDS were added to the 20 times diluted bovine plasma such that final concentrations of the SDS become 0.05%, 0.1%, 0.2%, 0.3%, 0.4%, and 0.5% respectively to be set as Test Examples 7 to 12. In addition, 10 times diluted bovine plasma to which SDS is not added was set as Comparative Example 1 and 20 times diluted bovine plasma to which SDS is not added was set as Comparative Example 2. Test Examples 1 to 12 and Comparative Examples 1 and 2 were kept warm for 60 minutes at a temperature of 37° C. and the activity of the RNase A was measured during the time period using the same method as in Example 3.

For hydroxyprophyl-β-cyclodextrin [HPβCD], the “HPβCD concentration relative to the SDS concentration to suppress the inhibition of the LAMP reaction due to the SDS” value in test [1] (in the nucleic acid amplification reaction solution) was no less than 8 times.
Turning to `CCCCCCCCCCCCOS(=O)(=O)[O-].[Na+]` [SDS, sodium dodecyl sulfate], the “activity of the RNase A” value on RNase A (SDS 0.1% (Test Example 1)) and on RNase A (SDS 1.0% (Test Example 2)) was “suppressed” throughout. In addition, the Tt value in the test with Bifidobacterium bifidum (SDS 0.01% at heat treatment, 3 minutes at 90° C. (Test Example 3)) worked out at 17.5 min; in the test on Bifidobacterium bifidum (SDS 0.1% at heat treatment, 3 minutes at 90° C. (Test Example 4)), 14.2 min. For the same molecule, the “amplification of the nucleic acid” value is reported as “no amplification of the nucleic acid” with Bifidobacterium bifidum (SDS 1% at heat treatment, 3 minutes at 90° C. (Test Example 5)) and “No amplification of the nucleic acid was confirmed” in test [1] (HPβCD not added, SDS concentration 0.1%). Besides, in test [1] (HPβCD not added), the “SDS concentration at which amplification of the nucleic acid was confirmed” value is recorded as no more than 0.01%. Further, the “SDS concentration with which the activity of the RNase A was suppressed” value in test [2] (bovine plasma diluted 10 times (Test Examples 5 and 6)) is no less than 0.4%; in test [2] (bovine plasma diluted 20 times (Test Examples 9 to 12)), no less than 0.2%.
